# Measurements reported in PMC10664145, “Urinary Excretion of Mercapturic Acids of the Rodent Carcinogen Methyleugenol after a Single Meal of Basil Pesto: A Controlled Exposure Study in Humans” (Chemical Research in Toxicology, 2023).
# Where “and” joins values, the source holds several entries; their conditions need not be identical. Identical values can stand only once.
# What was measured:
# DNA [1] = conditions: cited from earlier work
# [2] = range over five models (male and female Sprague–Dawley and Fischer 344 rats, pooled human); cited from earlier work
# [3] = design: method as in PMID 22445790; conditions: cited from earlier work
# [4] = range over 12 experimental settings; ME 100, 200 or 500 μM; calculated from published data, molar units; cited from earlier work
# SULT1A1 = system: SULT1A1; design: method as in PMID 22337896; conditions: cited from earlier work
# [5] = cited from earlier work; for urinary metabolite of ME, share of the dose / urinary metabolite of ME in urine treated with glucuronidase/sulfatase, share of the dose: rat urine 24 h after oral ME 200 mg/kg
# human topoisomerase I = system: human topoisomerase I; design: method as in PMID 26542539; conditions: cited from earlier work
# [6] = design: method as in PMID 22610610, PMID 22445790; conditions: calculated from published data; cited from earlier work
# [7] = Controlled exposure study in humans: urinary excretion of E-3′-MEMA after a meal with 100 g basil pesto (1.7 mg ME), isotope-dilution LC–MS/MS; format: in vivo, human
# Method: Based on the findings of the pilot investigation, a more comprehensive (“main”) exposure study was performed. The study was conducted according to the guidelines of the Declaration of Helsinki and was approved by the ethics committee of the University of Potsdam under application number 4/2019. It was carried out at the Institute of Nutritional Science (University of Potsdam), where 12 healthy volunteers (six men and six women) with conventional nutrition habits were recruited. All participants gave written informed consent. The mean age of the test group was 31.6 ± 4.6 years (range: 25–42 years), and the mean body weight was 76.4 ± 10.0 kg (range: 61–94 kg). To guarantee that urinary excretion of MEMA was solely attributed to the consumption of the basil pesto served, all volunteers were asked to avoid ME-containing food 2 days before and after the consumption of the study meal. Therefore, they received an information sheet specifying potential ME sources. After overnight fasting, the participants consumed a meal comprising 100 g of self-made pesto containing 30 g of basil (equal to 1.7 mg of ME; recipe see Table S2) and 200 g of pasta. No further restrictions were exerted. To ensure proper urine sampling, the volunteers were encouraged to drink beverages as they preferred. Urine was collected quantitatively in capped polyethylene containers prior to the controlled exposure and during the following intervals: 0–1, 1–2, 2–3, 3–4, 4–5, 5–6, 6–8, 8–10, 10–12, 12–24, 24–36, and 36–48 h. After the volumes were measured, the urine was aliquoted in two 15 mL reaction tubes per time interval and stored at −20 °C until analysis.
# “System 2” was configured as follows: an HPLC 1100 (Agilent Technologies) was connected to a QTrap6500 triple quadrupole-hybrid ion trap mass spectrometer (Sciex, Darmstadt, Germany) equipped with an electrospray ionization source operating in negative mode. The chromatographic separation of the analytes was performed by ion pair chromatography on a Nucleoshell RP 18plus column (2.0 × 150 mm, 2.7 μm; Macherey-Nagel). The eluents were water containing 10 mM tributylamine and 10 mM acetic acid (eluent A) and acetonitrile (eluent B). The flow rate of the gradient (0 → 1 min: 2% eluent B; 1 → 8 min: 2 → 15% eluent B; 8 → 17.5 min: 15 → 35% eluent B; 17.5 → 18 min: 35 → 100% eluent B; 18 → 20 min: 100% eluent B; 20 → 20.1 min: 100 → 2% eluent B; 20.1 → 23 min: 2% eluent B) was 0.5 mL/min. […] The MRM mode was employed for quantitative analysis with the declustering potential and the entrance potential at −30 and −10 V, respectively. For the quantifier mass transitions of E-3′-MEMA (m/z 338.1 → 209.1) and d6-E-3′-MEMA (m/z 344.1 → 215.1), a collision energy of −20 V and a cell exit potential of −5 V were used. […]
# [8] = human, in vivo; cited from earlier work
# human CYPs = conditions: cited from earlier work
# [9] = system: primary cultures of rat hepatocytes; conditions: cited from earlier work
# [10] = rat, in vivo
# Method: The metabolism of ME and its isomer, MIE, was also studied in rats in vivo.[27] Urine collected over a period of 24 h after oral administration of ME (200 mg/kg) contained a total of ten metabolites (each accounting for ≥1% of the dose); together, they represented 95% of the dose. Among the microsomal metabolites described in the preceding sections, only 6-hydroxy-ME was detected in native urine (2% of the dose). In human liver microsomes, it contributed 0–3.4% to the metabolism of ME, less than that in liver microsomes from other species [calculated from data published by Cartus et al.[11] and Al-Subeihi et al.[26]]. For this reason, and as 6-hydroxy-ME is not involved in bioactivation, it is not suited as a biomarker. Eugenol and chavibetol were found in urine treated with glucuronidase/sulfatase at levels of 7 and 4% of the dose, respectively. Obviously, these metabolites are not suited as biomarkers for exposure to ME, as they may also be found after exposure to eugenol and chavibetol. […] Although in this study, 95% of the dose of ME was recovered as metabolites in urine, metabolites were additionally detected in bile. […] Glutathione (GSH) conjugates and other metabolites of the mercapturic acid pathways were not detected in that study; however, the method used (extraction of the acidified urine or bile with ether followed by gas chromatography) was not suitable for their detection.
# DNA [11] = conditions: cited from earlier work; remark: listed apart in the source
# [12] = n = 1; cited from earlier work
smiles,measurement,setting,value
C=CC(O)c1ccc(OC)c(OC)c1 (stereo not drawn) [1′-hydroxy-ME],DNA adduct levels in mice carrying a human SULT1A1–1A2 transgene compared to wild-type mice,DNA [1],nine times higher
same,"potency in induction of hepatomas and formation of DNA adducts in mouse liver, compared with ME",DNA [1],more potent than ME
same,contribution of the metabolite to ME metabolism calculated from Vmax values,[2],36.2–50.1%
same,"catalytic efficiency of glucuronidation, factor lower in human than in male rat liver microsomes",[3],125 times
same,contribution of the metabolite to the metabolism of ME (sum of all metabolites),[4],36.4–69.4%
same,efficiency of human SULT1A1 in activation to a mutagen relative to its mouse orthologue,SULT1A1,about 3 times
"COc1ccc(CC(O)C(=O)O)cc1OC (stereo not drawn) [2-hydroxy-3-(3,4-dimethoxyphenyl)propionic acid]","urinary metabolite of ME, share of the dose",[5],20 % of the dose
"COc1ccc(CC(O)CO)cc1OC (stereo not drawn) [2′,3′-dihydroxy-2′,3′-dihydro-ME]",contribution of the metabolite to ME metabolism calculated from Vmax values,[2],21.8–44.0%
"Cc1ccc(CC(=O)O)cc1C [3,4-Dimethylphenylacetic acid]","urinary metabolite of ME, share of the dose",[5],3 % of the dose
"COc1ccc(C(=O)O)cc1OC [3,4-dimethoxybenzoic acid]","urinary metabolite of ME, share of the dose",[5],2 % of the dose
"COc1ccc(C(=O)NCC(=O)O)cc1OC [3,4-dimethoxybenzoylglycine]","urinary metabolite of ME, share of the dose",[5],30 % of the dose
"COc1ccc(C=CC(=O)NCC(=O)O)cc1OC [3,4-dimethoxycinnamoylglycine]","urinary metabolite of ME, share of the dose",[5],24 % of the dose
"COc1ccc(C(O)CC(=O)O)cc1OC (stereo not drawn) [3-hydroxy-3-(3,4-dimethoxyphenyl)propionic acid]","urinary metabolite of ME, share of the dose",[5],2 % of the dose
"COc1ccc(C=CCO)cc1OC [3′-hydroxy-MIE, 3′-hydroxymethylisoeugenol]",share of the dose excreted as urinary metabolites that appeared to be formed via 3′-hydroxy-MIE,"[5]; rats, ME 200 mg/kg",62 % of the dose
same,share of the urinary metabolites that appeared to be formed via 3′-hydroxy-MIE,"[5]; rats, ME 200 mg/kg",65%
same,contribution of the metabolite to ME metabolism calculated from Vmax values,[2],10.3–12.9%
same,contribution of the metabolite to the metabolism of ME (sum of all metabolites),[4],10.4–42.4%
COc1ccc(/C=C/C=O)cc1OC [3′-oxo-MIE],contribution of the metabolite to the metabolism of ME (sum of all metabolites),[4],0–6.8%
same,effect on human topoisomerase I activity in vitro,human topoisomerase I,inhibit
C=CCc1cc(OC)c(OC)cc1O [6-hydroxy-ME],contribution of 6-hydroxy-ME to the metabolism of ME in human liver microsomes,[6],0–3.4%
same,"urinary metabolite of ME, share of the dose",[5],2 % of the dose
same,contribution of the metabolite to ME metabolism calculated from Vmax values,[2],3.9–4.7%
same,contribution of the metabolite to the metabolism of ME (sum of all metabolites),[4],0–27.4%
"COc1ccc(C=CCSC[C@H](NC(C)=O)C(=O)O)cc1OC [E-3′-MEMA, N-acetyl-S-[3′-(3,4-dimethoxyphenyl)allyl]-L-cysteine]","total amount of E-3′-MEMA excreted, range among 12 participants",[7]; 1.7 mg ME in basil pesto,3–274 ng/person
same,"interindividual variability of E-3′-MEMA excretion, factor between highest and lowest values",[7]; 12 participants,~80
same,E-3′-MEMA ratio of ME intake,"[7]; individual participant, urine 0–48 h after 100 g basil pesto containing 1.7 mg ME",33 ppm and 20 ppm and 85 ppm and 14 ppm and 1 ppm and 2 ppm and 4 ppm and 16 ppm and 6 ppm and 11 ppm
same,E-3′-MEMA total urinary excretion,"[7]; individual participant, urine 0–48 h after 100 g basil pesto containing 1.7 mg ME, sum of all samples with concentration > LOD",105 ng and 63 ng and 274 ng and 44 ng and 3 ng and 6 ng and 12 ng and 51 ng and 18 ng and 36 ng and 20 ng and 52 ng
"C=CCc1ccc(O)c(OC)c1 [Eugenol, eugenol]","urinary metabolite of ME in urine treated with glucuronidase/sulfatase, share of the dose",[5],7 % of the dose
"C=CCc1ccc(OC)c(OC)c1 [ME, Methyleugenol]",reduction of DNA adduct formation by ME in mouse liver by genetic knockout of SULT1A1,"DNA [1]; mouse, in vivo",99%
same,half-life of elimination of ME from serum,[8],about 90 min
same,time of peak serum levels of ME after the meal,[8],5 min
same,contribution of 1′-hydroxylation to hepatic ME metabolism at low substrate concentration,human CYPs,38.4%
same,"contribution of 2′,3′-epoxidation to hepatic ME metabolism at low substrate concentration",human CYPs,58.8%
same,induction of UDS by ME in the presence of the SULT1 inhibitor pentachlorophenol,[9],fully suppressed
same,share of the dose of ME converted via 1′-sulfooxy-ME to 3′-hydroxy-MIE (suggested),[10],14.3–41.7%
COc1ccc(C=CCNc2nc3c(ncn3[C@H]3C[C@H](O)[C@@H](CO)O3)c(=O)[nH]2)cc1OC [N^2-(methylisoeugenol-3′-yl)-2′-deoxyguanosine],human lung samples with DNA adducts present,DNA [11],10 out of 10
same,human liver samples with DNA adducts present,DNA [11]; surgical human liver samples,150 out of 151
C=CCc1ccc(OC)c(O)c1 [chavibetol],"urinary metabolite of ME in urine treated with glucuronidase/sulfatase, share of the dose",[5],4 % of the dose
"COc1ccc(C=CCSC[C@H](NC(C)=O)C(=O)O)cc1 [mercapturic acid of estragole, N-acetyl-S-[3′-(4-methoxyphenyl)allyl]-L-Cys]",urinary excretion of the mercapturic acid as share of intake,[12],13.2 ppm
